Key:
[1] = system: γ globin gene; assay: γ globin gene induction by relative quantitative RT-PCR; type: cell-based, human; conditions: for γ globin induction (IC50): Table 3, γ globin mRNA induction fold at the compound's IC50, 3 days
Description: (§1) After 3 days of drug-treatment, the total RNA was extracted by RNA Spin mini kit (Ge-Healthcare) and reverse-transcription was performed by using superscript II (Invitrogen) followed the manufactors instruction. Quantitative PCR was performed on LightCycler with using STBR green master mix followed the manufactors instruction (Roche). The absolute quantitative RT-PCR was calculated by the standard curve with supplying a known copy number of plasmids. The relative quantitative RT-PCR was normalized to the expression levels of the β-actin and compared to the mock control.
To search for new agents, which are capable of inducing the expression of γ globin, a series of naphthalimide derivatives with various substituent(s) on the naphthalene ring and the heterocyclic N-atom (A1-A14, B1-B4, C1-C5, D1, and E1-E3, FIG. 2) were synthesized. These derivatives were subjected to evaluating the γ globin induction abilities in differentiated peripheral blood mononuclear cells (PBMCs). The PBMCs isolated from the peripheral blood of donors were expanded and differentiated for a total of 14 days in a two-phase liquid culture. The resulted primary erythoid cells were then treated with different dosages of naphthalimide derivatives individually for another 3 days. The expression levels of the endogenous γ globin gene were estimated by relative quantitative RT-PCR and the proliferation rates of these cells were examined by AlamarBlue cell viability assay. […]; 2-4.5-folds induction of the γ globin gene expression in the compounds-treated cells (FIG. 3).

[2] = system: primary human erythroid cells; assay: AlamarBlue cell viability / proliferation assay; conditions: Table 3; primary human erythroid cells, 3 days, proliferation reduced by 50%
[3] = solubility in DMSO and H2O; type: physicochemical; conditions: water; H2O; read-out: solubility H2O
[4] = system: p38; assay: p38 phosphorylation by western blot; type: cell-based, human; conditions: FIG. 5; western blot p-p38/p38, at IC50
Description: FIG. 5 is a graph showing the phosphorylation status of p38 in primary erythroid cells treating with HU, NaB, S51021, or SS-2394. Upper panel: For detection of the phosphorylation status of p38, twenty microgram of total cell lysate extracted from the primary human erythroid cells treated with HU (145.9 μM), NaB (221.6 μM), S51021 (21.8 μM) or SS-2394 (2.3 μM) was analyzed by Western blot analysis using antibody against p-p38 or p38. Lower panel: The signal intensity was quantified by an image-analyzing software. The intensity of p-p38 levels of mock control cells was set as 1. Data are shown as the mean±SEM, N=5.
After 3 days of compound treatment, total protein or histone of the drug-treated cells was extracted. Histone was extracted by histone extraction buffer (10 mM HEPES, 1.5 mM MgCl2, 10 mM KCl, 0.5 mM DTT, 1.5 mM PMSF and 0.2 N HCl) at 4° C. overnight then centrifuged at 13,000 rpm for 5 minutes and collected the supernatant. Thirty microgram of histone extracts were separated in 15% SDS-PAGE and blotted onto PVDF membrane. After blocking with 5% non-fat milk in TBST, the membrane was then incubated with primary antibody against total histone H4 or total acetyl histone H4 at 4° C. overnight. […]

[5] = system: γ globin; assay: absolute quantitative RT-PCR, proportion of γ globin mRNA; type: cell-based; conditions: primary human erythroid cells, at IC50, 3 days; mock 7.9%
Description: as §1
To evaluate the specificity of S51021, SS-2394, HU, and NaB in mediating globin genes activation, the amounts of individual P3-liked globin mRNAs were measured by absolute quantitative RT-PCR.
The primary human erythroid cells were treated with HU (145.9 μM), NaB (221.6 μM), S51021 (21.8 μM) or SS2394 (2.3 μM) for 3 days, and the expression levels of each globin mRNA were estimated by absolute quantitative RT-PCR analysis. The proportions of individual 3-like globin chains among the total 3-like globin mRNA are shown. Data are presented as the mean±SEM, N=3.

[6] = system: BCL11A; assay: BCL11A protein by western blot; type: cell-based, human; conditions: FIG. 4C, at IC50, 3 days
Description: FIGS. 4A-4D are graphs showing the expression profiles of the γ globin gene and HbF-related regulators after compounds treatment in the primary human erthroid cells. […] Data are presented as the relative expression level in mean±SEM, N=8. […] Upper panel: For detection of the induction level of γ globin, fifty microgram of total cell lysate was analyzed by western blot analysis using antibody against γ globin, or β-actin. Lower panel: The signal intensity was quantified by an image-analyzing software. The intensity of γ globin expression levels of mock control was set as 1. Data are shown as the mean±SEM, N=5. […] Upper panel: For detection of the expression level of BCL11A, thirty microgram of total protein was separated by SDS-PAGE electrophoresis, transferred to PVDF membrane, and immunobloted with antibody against BCL11A and β-actin. Lower panel: The signal was quantified by an image-analyzing software. The intensity of the mock control BCL11A levels were set as 1. Data are shown as the mean±SEM, N=5. FIG. 4D is a graph showing that the HU-nonresponding primary human erythroid cells were treated with HU (145.9 μM), NaB (221.6 μM), S51021 (21.8 μM) or SS-2394 (2.3 μM) for 3 days. Total RNA was extracted, and the expression level of γ globin gene was analyzed by relative quantitative RT-PCR. Data are shown as the mean±SEM, N=3. […]

Row | EC (μM) induction of HU IC50 (2.3 fold) ([1]; concentration inducing γ globin gene expression 2.3-fold, primary human erythroid cells) [µM] | solubility [3] [mM] | SMILES | γ globin induction (IC50) [1] [fold] | IC50 [2] [µM] | phosphorylation level of p38 [4] | γ globin proportion of total β-like globin mRNA [5] [%] | expression level of γ globin mRNA ([1]; FIG. 4A, at IC50, 3 days, relative to mock) | BCL11A protein [6]
1 | 145.9 | > 100 | NC(=O)NO [HU, hydroxyurea] | 2.3 | 146 | significantly increased | 11.2 ± 1.1 | – | –
2 | – | – | CCCC(=O)[O-].[Na+] [NaB, sodium butyrate] | 1.3 | 222 | significantly increased | 10.8 ± 1.0 | not | significant reduction

From US20170290820A1, “METHODS AND COMPOSITIONS FOR TREATING BETA-THALASSEMIA AND SICKLE CELL DISEASE” (Academia Sinica, priority 2013, published 2017)
